# Reference: patent publication EP4206196A1, “PYRIMIDINE SUBSTITUTED DERIVATIVES AS TYK2 INHIBITORS” (Almirall S.A., priority 2021, dated 2023)
# Like-named read-outs stand apart in the source and are kept apart here.
# Experiments:
# [1] = target: T1, TYK2 (JH2domain-pseudokinase) (Homo sapiens, UniProt P29597); experiment: TYK2 JH2 domain binding assay (KINOMEscan)
# T1 construct: TYK2 (JH2domain-pseudokinase)-tagged T7 phage strains were prepared in an E. coli host derived from the BL21 strain; made in house; host or cells: E. coli BL21-derived host (T7 phage) or HEK-293 cells
# Experimental: TYK2 (JH2domain-pseudokinase) KINOMEscan assay. For the assay, TYK2 (JH2domain-pseudokinase)-tagged T7 phage strains were prepared in an E. coli host derived from the BL21 strain.E. coli were grown to log-phase and infected with T7 phage and incubated with shaking at 32°C until lysis. The lysates were centrifuged and filtered to remove cell debris. The remaining TYK2 (JH2domain-pseudokinase) were produced in HEK-293 cells and subsequently tagged with DNA for qPCR detection. Streptavidin-coated magnetic beads were treated with biotinylated small molecule ligands for 30 minutes at room temperature to generate affinity resins for kinase assays. The liganded beads were blocked with excess biotin and washed with blocking buffer (SeaBlock (Pierce), 1% BSA, 0.05% Tween 20, 1 mM DTT) to remove unbound ligand and to reduce non-specific binding. Binding reactions were assembled by combining TYK2 (JH2domain-pseudokinase), liganded affinity beads, and test compounds in 1x binding buffer (20% SeaBlock, 0.17x PBS, 0.05% Tween 20, 6 mM DTT). Test compounds were prepared as 111X stocks in 100% DMSO. Kds were determined using an 11-point 3-fold compound dilution series with three DMSO control points. All compounds for Kd measurements are distributed by acoustic transfer (non-contact dispensing) in 100% DMSO. The compounds were then diluted directly into the assays such that the final concentration of DMSO was 0.9%. All reactions performed in polypropylene 384-well plate. Each was a final volume of 0.02 ml. The assay plates were incubated at room temperature with shaking for 1 hour and the affinity beads were washed with wash buffer (1x PBS, 0.05% Tween 20). The beads were then re-suspended in elution buffer (1x PBS, 0.05% Tween 20, 0.5 µM non-biotinylated affinity ligand) and incubated at room temperature with shaking for 30 minutes. The kinase concentration in the eluates was measured by qPCR. […]
# An 11-point 3-fold serial dilution of each test compound was prepared in 100% DMSO at 100x final test concentration and subsequently diluted to 1x in the assay (final DMSO concentration = 1%). Most Kds were determined using a compound top concentration = 30,000 nM. If the initial Kd determined was < 0.5 nM (the lowest concentration tested), the measurement was repeated with a serial dilution starting at a lower top concentration.
# Curves were fitted using a non-linear least square fit with the Levenberg-Marquardt algorithm. […] TABLE 1: Kd Affinities for Tyk2 JH2 Domain Binding Assay.
# [2] = system: STAT1/3 through TYK2/JAK1; experiment: IFNa induced STAT phosphorylation in HEK293 cells (SIE-bla reporter gene); assay type: cell-based; details: HEK293T-sie-bla cells, IFNa at EC80, 4 hours, read-out: Inhibition of IFNa induced STAT phosphorylation HEK293 cells IC50
# Experimental: Stimulation of HEK293T-sie-bla cells with interferon alpha (INFa) activates the signaling pathway of STAT1/3 through TYK2/JAK1. In this assay, measurement of the activity of the reporter gene […]-lactamase expression was used as the readout.
# CellSensorTM SIE-bla HEK293T cell line were purchased from Thermo Fisher Scientific (ref. #K1649B) and cultured as specified by the provider. A number of 30.000 cells per well (40 µl) were plated in a 384-well plate (Corning ref.# 3712) and cultured overnight at 37°C with 5% CO2 in a complete Optimem media (ThermoFisher ref. #11058-021) containing 0.5% (v/v) heat inactivated dialyzed FBS (Life Technologies ref. #26400044), 10 µM non-essential aminoacids NEAA (Sigma ref. #M7145), 100 µM Sodium Pyruvate (Gibco ref. #11360-039) and 100 U/mL Penicillin (Sigma ref. #P0781). Compounds were initially dissolved in 100% DMSO. Compound curves were then prepared using a 1/5 serial dilution (10 dilutions). The dilutions were directly diluted in complete Optimem media at 40-fold their final concentration in 20% DMSO. IFNa initial solution (R&D systems ref. #11100-1) was prepared at 10-fold its EC80 in complete Optimem media. Compounds and IFNa were added simultaneously to the wells with cells and incubated during 4 hours at 37°C (the final DMSO was 0.1%). The […]-lactamase substrate (LifeTechnologies ref.#K1138) was prepared at 6-fold its final concentration as specified by the provider. Then 10 µL of the mixture was added to the wells to stop the stimulation. Plate was left in the dark over-night. Then a FRET reading was performed on an appropriate plate reader.
# All experiments were analysed using an ExcelFit template and the four-parameter log equation. […] TABLE 2: IC50 Inhibitions of IFNa induced STAT phosphorylation in HEK293 cells
# T1 sequence (P29597 589-875 limits assumed): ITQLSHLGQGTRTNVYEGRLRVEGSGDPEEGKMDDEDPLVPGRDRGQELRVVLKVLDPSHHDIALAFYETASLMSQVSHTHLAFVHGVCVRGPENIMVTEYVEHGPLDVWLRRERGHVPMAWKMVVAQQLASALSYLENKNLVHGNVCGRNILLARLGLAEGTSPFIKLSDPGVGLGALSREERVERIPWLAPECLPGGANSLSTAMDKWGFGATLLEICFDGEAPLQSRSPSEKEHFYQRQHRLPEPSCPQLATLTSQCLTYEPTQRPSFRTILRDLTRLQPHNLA
Molecule,Kd [1] [nM],"IC50 ([2]; Homo sapiens, HEK293) [nM]",IC50 [2] [nM]
"COc1c(Nc2cc(Nc3cc(C)nc(C)n3)ncn2)cccc1-c1cnn(C)c1 [Example 15, N4-(2,6-dimethylpyrimidin-4-yl)-N6-[2-methoxy-3-(1-methylpyrazol-4-yl)phenyl]pyrimidine-4,6-diamine]",0.2 to 1,10 to 100,–
"COCCn1cnc(-c2ccnc(Nc3cc(Nc4cc(C)nc(C)n4)ncn3)c2OC)n1 [Example 169, N6-(2,6-dimethylpyrimidin-4-yl)-N4-[3-methoxy-4-[1-(2-methoxyethyl)-1,2,4-triazol-3-yl]-2-pyridyl]pyrimidine-4,6-diamine]",< 0.2,10 to 100,–
"COc1c(C)cccc1Nc1cc(Nc2cnn(C3CCOCC3)c2)ncn1 [Example 9, N4-(2-methoxy-3-methyl-phenyl)-N6-(1-tetrahydropyran-4-ylpyrazol-4-yl)pyrimidine-4,6-diamine]",> 10,> 1000,–
"N4-(2,6-dimethylpyrimidin-4-yl)-N6-(3-methoxy-5-tetrahydropyran-2-yl-2-pyridyl)pyrimidine-4,6-diamine [Example 166]",1 to 10,–,100 to 1000
"Cc1cc(Nc2cc(Nc3ccc(C4CCOCC4)cc3N(C)S(C)(=O)=O)ncn2)nc(C)n1 [Example 106, N-[2-[[6-[(2,6-dimethylpyrimidin-4-yl)amino]pyrimidin-4-yl]amino]-5-tetrahydropyran-4-yl-phenyl]-N-methyl-methanesulfonamide]",< 0.2,10 to 100,–
"N-[5-(1,5-dimethylpyrazol-4-yl)-2-[[6-[(2,6-dimethylpyrimidin-4-yl)amino]pyrimidin-4-yl]amino]-3-pyridyl]-N-(trideuteriomethyl)methanesulfonamide [Example 133]",< 0.2,–,< 10
"COc1cccc(Nc2cc(Nc3cc(C)nc(C)n3)ncn2)c1OC [Example 20, N4-(2,3-dimethoxyphenyl)-N6-(2,6-dimethylpyrimidin-4-yl)pyrimidine-4,6-diamine]",0.2 to 1,100 to 1000,–
"COc1cc(-c2cnn(C)c2)c(C)nc1Nc1cc(Nc2cc(C)ncn2)ncn1 [Example 165, N4-[3-methoxy-6-methyl-5-(1-methylpyrazol-4-yl)-2-pyridyl]-N6-(6-methylpyrimidin-4-yl)pyrimidine-4,6-diamine]",0.2 to 1,100 to 1000,–
"Cc1cc(Nc2cc(Nc3ncc(C4CC4)cc3P(C)(C)=O)ncn2)nc(C)n1 [Example 171, 4-N-(5-cyclopropyl-3-dimethylphosphorylpyridin-2-yl)-6-N-(2,6-dimethylpyrimidin-4-yl)pyrimidine-4,6-diamine]",< 0.2,10 to 100,–
"Cc1cc(Nc2cc(Nc3ccc(C4CCCOC4)cc3N(C)S(C)(=O)=O)ncn2)nc(C)n1 (centres unmarked) [Example 105, N-[2-[[6-[(2,6-dimethylpyrimidin-4-yl)amino]pyrimidin-4-yl]amino]-5-tetrahydropyran-3-yl-phenyl]-N-methyl-methanesulfonamide]",< 0.2,< 10,–
"COc1cc(F)ccc1Nc1cc(Nc2cc(C)nc(C)n2)ncn1 [Example 21, N4-(2,6-dimethylpyrimidin-4-yl)-N6-(4-fluoro-2-methoxy-phenyl)pyrimidine-4,6-diamine]",1 to 10,> 1000,–
"Cc1cc(Nc2cc(Nc3ncc(-c4cnn(C)c4C)cc3P(C)(C)=O)ncn2)nc(C)n1 [Example 149, N6-[3-dimethylphosphoryl-5-(1,5-dimethylpyrazol-4-yl)-2-pyridyl]-N4-(2,6-dimethylpyrimidin-4-yl)pyrimidine-4,6-diamine]",< 0.2,< 10,–
"Cc1cc(Nc2cc(Nc3ccc(-c4cn[nH]c4C)cc3N(C)S(C)(=O)=O)ncn2)nc(C)n1 [Example 89, N-[2-[[6-[(2,6-dimethylpyrimidin-4-yl)amino]pyrimidin-4-yl]amino]-5-(5-methyl-1H-pyrazol-4-yl)phenyl]-N-methyl-methanesulfonamide]",< 0.2,10 to 100,–
"COc1cc(C(F)(F)F)ccc1Nc1cc(Nc2cc(C)nc(C)n2)ncn1 [Example 22, N6-(2,6-dimethylpyrimidin-4-yl)-N4-[2-methoxy-4-(trifluoromethyl)phenyl]pyrimidine-4,6-diamine]",> 10,100 to 1000,–
"COc1c(C#N)cccc1Nc1cc(Nc2cc(C)nc(C)n2)ncn1 [Example 16, 3-[[6-[(2,6-dimethylpyrimidin-4-yl)amino]pyrimidin-4-yl]amino]-2-methoxy-benzonitrile]",1 to 10,> 1000,–
"[2H]C([2H])([2H])N(c1ccccc1Nc1cc(Nc2cc(C)nc(C)n2)ncn1)S(C)(=O)=O [Example 34, N-[2-[[6-[(2,6-dimethylpyrimidin-4-yl)amino]pyrimidin-4-yl]amino]phenyl]-N-(trideuteriomethyl)methanesulfonamide]",< 0.2,< 10,–
"Cc1cc(Nc2cc(Nc3ncc(-c4ccn(C)n4)cc3N(C)S(C)(=O)=O)ncn2)nc(C)n1 [Example 131, N-[2-[[6-[(2,6-dimethylpyrimidin-4-yl)amino]pyrimidin-4-yl]amino]-5-(1-methylpyrazol-3-yl)-3-pyridyl]-N-methyl-methanesulfonamide]",< 0.2,10 to 100,–
"Cc1cc(Nc2cc(Nc3ccc(-c4nc(C)nn4C)cc3N(C)S(C)(=O)=O)ncn2)nc(C)n1 [Example 99, N-[2-[[6-[(2,6-dimethylpyrimidin-4-yl)amino]pyrimidin-4-yl]amino]-5-(2,5-dimethyl-1,2,4-triazol-3-yl)phenyl]-N-methyl-methanesulfonamide]",0.2 to 1,10 to 100,–
"COc1c(Nc2cc(Nc3cc(C)nc(C)n3)ncn2)ncc(-c2cnn(C)c2C)c1C [Example 141, N6-[5-(1,5-dimethylpyrazol-4-yl)-3-methoxy-4-methyl-2-pyridyl]-N4-(2,6-dimethylpyrimidin-4-yl)pyrimidine-4,6-diamine]",< 0.2,10 to 100,–
"Cc1cc(Nc2cc(Nc3ncc(-c4nccn4C)cc3N(C)S(C)(=O)=O)ncn2)nc(C)n1 [Example 128, N-[2-[[6-[(2,6-dimethylpyrimidin-4-yl)amino]pyrimidin-4-yl]amino]-5-(1-methylimidazol-2-yl)-3-pyridyl]-N-methyl-methanesulfonamide]",< 0.2,100 to 1000,–
"Cc1cc(Nc2cc(Nc3ncc(C4CCOCC4)cc3N(C)S(C)(=O)=O)ncn2)nc(C)n1 [Example 157, N-[2-[[6-[(2,6-dimethylpyrimidin-4-yl)amino]pyrimidin-4-yl]amino]-5-(oxan-4-yl)pyridin-3-yl]-N-methylmethanesulfonamide]",0.2 to 1,10 to 100,–
"Cc1ccc(Nc2cc(Nc3cc(C)nc(C)n3)ncn2)c(N(C)S(C)(=O)=O)c1 [Example 69, N-[2-[[6-[(2,6-dimethylpyrimidin-4-yl)amino]pyrimidin-4-yl]amino]-5-methyl-phenyl]-N-methyl-methanesulfonamide]",< 0.2,10 to 100,–
